This note sets out measurements from patent US11339130B1 (Blade Therapeutics, Inc., priority 2016, dated 2022).

What all share (type): biochemical
Assay [1] has as its target T1, Human Calpain 1/NS1 (Homo sapiens, UniProt P07384).
T1 sequence (P07384 1-714): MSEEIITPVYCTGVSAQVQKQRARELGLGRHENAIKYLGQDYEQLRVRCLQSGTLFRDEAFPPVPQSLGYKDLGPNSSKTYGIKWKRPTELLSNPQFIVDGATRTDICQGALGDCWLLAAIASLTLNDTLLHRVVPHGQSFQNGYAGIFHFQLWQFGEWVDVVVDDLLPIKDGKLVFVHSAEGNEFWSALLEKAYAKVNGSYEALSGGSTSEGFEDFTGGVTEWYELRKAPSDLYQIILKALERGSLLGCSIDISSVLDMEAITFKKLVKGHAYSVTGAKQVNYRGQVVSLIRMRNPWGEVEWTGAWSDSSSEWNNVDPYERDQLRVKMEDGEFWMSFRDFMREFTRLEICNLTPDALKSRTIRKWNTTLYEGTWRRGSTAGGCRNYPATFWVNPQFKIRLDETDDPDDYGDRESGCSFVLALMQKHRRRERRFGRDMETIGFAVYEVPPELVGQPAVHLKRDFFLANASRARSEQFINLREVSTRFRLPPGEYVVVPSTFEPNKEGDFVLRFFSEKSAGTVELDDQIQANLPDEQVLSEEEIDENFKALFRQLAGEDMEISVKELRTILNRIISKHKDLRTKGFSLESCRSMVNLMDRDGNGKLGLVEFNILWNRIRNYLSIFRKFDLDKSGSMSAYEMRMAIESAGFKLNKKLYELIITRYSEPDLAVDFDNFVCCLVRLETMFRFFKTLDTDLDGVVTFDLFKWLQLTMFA
T1 sequence (P04632 1-268 partner): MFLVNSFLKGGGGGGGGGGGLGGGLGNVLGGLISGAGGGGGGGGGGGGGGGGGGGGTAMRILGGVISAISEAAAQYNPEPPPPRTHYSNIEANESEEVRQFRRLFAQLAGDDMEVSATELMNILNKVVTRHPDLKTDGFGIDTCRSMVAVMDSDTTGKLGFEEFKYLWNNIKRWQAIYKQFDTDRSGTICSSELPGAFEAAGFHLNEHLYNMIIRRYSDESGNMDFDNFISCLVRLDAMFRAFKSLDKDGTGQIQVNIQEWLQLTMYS
The assay can be described thus: Calpain inhibition continuous fluorescence (FRET) assay, Human Calpain 1/NS1. The conditions noted are these: read-out: Human Calpain 1/NS1 IC50. How it is done: (§1) Calpain 1, 2, and 9 activity and inhibition thereof was assessed by means of a continuous fluorescence assay. The SensoLyte 520 Calpain substrate (Anaspec Inc) was optimized for detecting calpain activity. This substrate contains an internally quenched 5-FAM/QXL™ 520 FRET pair. Calpains 1, 2, and 9 cleave the FRET substrate into two separate fragments resulting in an increase of 5-FAM fluorescence that is proportional to calpain activity
(§2) Assays were typically setup in black 384-well plates using automated liquid handling as follows. Calpain assay base buffer typically contains 50 mM Tris, pH 7.5, 100 mM NaCl and 1 mM DTT. Inhibitors were serially diluted in DMSO and used to setup 2× mixtures with calpains in the aforementioned buffer. After incubation at ambient temperature (25C), the reaction was initiated by adding a 2× mix of the fluorescent peptide substrate and CaCl2) (required for in-situ calpain activation) in the same buffer. Reaction progress curve data were typically collected for 10 min using excitation/emission wavelengths of 490 nm/520 nm on SpectraMax i3× or the FLIPR-Tetra plate readers (Molecular Devices Inc). Reaction rates were calculated from progress curve slopes typically over 1-5 min. Dose response curves (rate vs. log inhibitor concentration) were typically fit to a 4-parameter logistic function to extract IC50 values.

The target of assay [2] is T2, Human Calpain 9/NS1 (Homo sapiens, UniProt O14815).
T2 sequence (O14815 1-690): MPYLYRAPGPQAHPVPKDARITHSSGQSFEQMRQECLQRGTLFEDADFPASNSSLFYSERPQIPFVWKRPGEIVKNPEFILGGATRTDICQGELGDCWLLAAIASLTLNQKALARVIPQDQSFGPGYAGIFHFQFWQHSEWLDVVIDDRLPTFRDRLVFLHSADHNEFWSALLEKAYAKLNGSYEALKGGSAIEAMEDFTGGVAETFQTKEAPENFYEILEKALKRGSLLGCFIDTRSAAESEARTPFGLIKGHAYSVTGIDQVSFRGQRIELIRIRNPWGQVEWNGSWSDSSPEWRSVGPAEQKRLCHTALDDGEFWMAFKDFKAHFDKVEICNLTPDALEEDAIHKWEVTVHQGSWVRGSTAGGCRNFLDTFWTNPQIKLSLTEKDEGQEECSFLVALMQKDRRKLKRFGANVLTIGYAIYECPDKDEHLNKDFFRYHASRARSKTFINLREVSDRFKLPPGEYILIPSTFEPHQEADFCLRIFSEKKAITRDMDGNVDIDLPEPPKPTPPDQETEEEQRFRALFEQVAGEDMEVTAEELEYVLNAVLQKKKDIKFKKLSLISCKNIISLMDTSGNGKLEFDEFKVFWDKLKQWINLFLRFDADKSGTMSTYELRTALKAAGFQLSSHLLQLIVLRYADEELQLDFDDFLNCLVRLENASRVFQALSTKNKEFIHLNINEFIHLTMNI
T2 sequence (P04632 1-268 partner): T1 sequence (P04632 1-268 partner)
The assay can be described thus: Calpain inhibition continuous fluorescence (FRET) assay, Human Calpain 9/NS1. The conditions noted are these: read-out: Human Calpain 9/NS1 IC50. How it is done:
as §1, §2

Assay [3] concerns the target T3, Human Calpain 2/NS1 (Homo sapiens, UniProt P17655).
T3 sequence (P17655 1-700): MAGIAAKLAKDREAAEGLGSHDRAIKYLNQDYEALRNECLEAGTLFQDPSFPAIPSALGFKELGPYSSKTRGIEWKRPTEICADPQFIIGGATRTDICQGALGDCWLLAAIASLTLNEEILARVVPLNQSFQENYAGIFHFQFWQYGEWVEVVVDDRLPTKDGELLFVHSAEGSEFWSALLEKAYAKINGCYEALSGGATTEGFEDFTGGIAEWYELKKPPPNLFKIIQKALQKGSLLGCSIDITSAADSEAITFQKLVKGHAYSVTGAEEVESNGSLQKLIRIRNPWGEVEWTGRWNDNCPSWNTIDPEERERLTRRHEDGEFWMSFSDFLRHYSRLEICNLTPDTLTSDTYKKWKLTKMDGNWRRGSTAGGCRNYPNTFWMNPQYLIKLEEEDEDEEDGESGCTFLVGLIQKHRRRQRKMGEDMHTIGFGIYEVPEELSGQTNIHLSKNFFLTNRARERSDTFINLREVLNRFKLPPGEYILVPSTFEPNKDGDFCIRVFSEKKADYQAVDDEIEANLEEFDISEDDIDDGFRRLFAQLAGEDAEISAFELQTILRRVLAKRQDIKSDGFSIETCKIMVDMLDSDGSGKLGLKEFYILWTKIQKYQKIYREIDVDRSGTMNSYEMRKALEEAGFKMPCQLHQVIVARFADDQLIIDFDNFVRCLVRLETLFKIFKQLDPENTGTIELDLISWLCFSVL
T3 sequence (P04632 1-268 partner): T1 sequence (P04632 1-268 partner)
Description: Calpain inhibition continuous fluorescence (FRET) assay, Human Calpain 2/NS1. Particulars: read-out: Human Calpain 2/NS1 IC50. How it is done:
as §1, §2

Where a name gives a salt, the structure may show the parent alone. Read-outs that look alike come from different tables or passages of the source.

With `O=C[C@H](Cc1ccccc1)NC(=O)c1scnc1-n1cc(-c2ccccc2)cn1` [Compound 21, (S)—N-(1-oxo-3-phenylpropan-2-yl)-4-(4-phenyl-1H-pyrazol-1-yl)thiazole-5-carboxamide], the IC50 in assay [1] (Column A), in assay [2] (Column C) and in assay [3] (Column B) was below 3 µM throughout.
In the case of `NC(=O)C(=O)[C@H](Cc1ccccc1)NC(=O)c1scnc1-c1ccccn1` [Compound 109, (S)—N-(4-amino-3,4-dioxo-1-phenylbutan-2-yl)-4-(pyridin-2-yl)thiazole-5-carboxamide], the IC50 in assay [1] (Column A), in assay [2] (Column C) and in assay [3] (Column B) was below 3 µM each time.
On to “(S)—N-(4-amino-3,4-dioxo-1-phenylbutan-2-yl)-1-(tert-butyl)-3-methyl-1H-pyrazole-5-carboxamide [Compound 310]”, for which the figures for the IC50 in assay [1], in assay [2] and in assay [3] were below 3 µM, 3 to 10 µM and below 3 µM, respectively.
Take `NC(=O)C(=O)[C@H](Cc1ccccc1)NC(=O)c1[nH]ncc1-c1ccccc1` [Compound 129, (S)—N-(4-amino-3,4-dioxo-1-phenylbutan-2-yl)-4-phenyl-1H-pyrazole-5-carboxamide]: the IC50 in assay [1] (Column A) was 3 to 10 µM; in assay [2] (Column C), 3 to 10 µM; in assay [3] (Column B), above 10 µM.
With `NC(=O)C(=O)[C@H](Cc1ccccc1)NC(=O)c1c(Cl)ncn1-c1ccccc1` [Compound 291, (S)—N-(4-amino-3,4-dioxo-1-phenylbutan-2-yl)-4-chloro-1-phenyl-1H-imidazole-5-carboxamide], the IC50 in assay [1] (Column A), in assay [2] (Column C) and in assay [3] (Column B) was below 3 µM throughout.
Consider `Cn1cc(C(=O)NC(Cc2ccccc2)C(=O)C(N)=O)c(N2CCS(=O)(=O)CC2)n1` (stereo not drawn) [Compound 613, N-(4-amino-3,4-dioxo-1-phenylbutan-2-yl)-3-(1,1-dioxidothiomorpholino)-1-methyl-1H-pyrazole-4-carboxamide], for which the IC50 is 3 to 10 µM in assay [1], below 3 µM in assay [2] and 3 to 10 µM in assay [3].
With `O=C[C@H](Cc1ccccc1)NC(=O)c1cccc2nc(-c3ccccc3)[nH]c12` [Compound 92, (S)—N-(1-oxo-3-phenylpropan-2-yl)-2-phenyl-1H-benzo[D]imidazole-7-carboxamide], the IC50 in assay [1] (Column A) was 3 to 10 µM; in assay [2] (Column C) it was below 3 µM; in assay [3] (Column B), 3 to 10 µM.
For the molecule `Cn1cc(C(=O)NC(Cc2ccccc2)C(=O)C(N)=O)c(-c2ccc3c(c2)OCCCO3)n1` (stereo not drawn) [Compound 625, N-(4-amino-3,4-dioxo-1-phenylbutan-2-yl)-3-(3,4-dihydro-2H-benzo[b][1,4]dioxepin-7-yl)-1-methyl-1H-pyrazole-4-carboxamide], the IC50 in assay [1], in assay [2] and in assay [3] was below 3 µM in each case.
Turning to `NC(=O)C(=O)[C@H](Cc1ccccc1)NC(=O)c1scnc1-n1cc(-c2ccccc2)cn1` [Compound 39, (S)—N-(4-amino-3,4-dioxo-1-phenylbutan-2-yl)-4-(4-phenyl-1H-pyrazol-1-yl)thiazole-5-carboxamide], the IC50 in assay [1] (Column A), in assay [2] (Column C) and in assay [3] (Column B) was below 3 µM in each case.
On to `O=C(NC1CC1)C(=O)[C@H](Cc1ccccc1)NC(=O)c1scnc1-c1ccccn1` [Compound 61], for which the IC50 in assay [1] (Column A), in assay [2] (Column C) and in assay [3] (Column B) was below 3 µM each time.
In the case of `NC(=O)C(=O)[C@H](Cc1ccccc1)NC(=O)c1scnc1-n1ncc2ccccc21` [Compound 40, (S)—N-(4-amino-3,4-dioxo-1-phenylbutan-2-yl)-4-(1H-indazol-1-yl)thiazole-5-carboxamide], the IC50 in assay [1] (Column A), in assay [2] (Column C) and in assay [3] (Column B) was below 3 µM in each case.
Take `Cc1cc(C(=O)N[C@@H](Cc2ccccc2)C(=O)C(N)=O)nn1-c1ncc(-c2ccccc2)o1` [Compound 114, (S)—N-(4-amino-3,4-dioxo-1-phenylbutan-2-yl)-5-methyl-1-(5-phenyloxazol-2-yl)-1H-pyrazole-3-carboxamide]: the IC50 in assay [1] (Column A) is 3 to 10 µM; in assay [2] (Column C), 3 to 10 µM; in assay [3] (Column B) it was below 3 µM.
In the case of `NC(=O)C(=O)C(Cc1ccccc1)NC(=O)c1cn(C(F)F)nc1-c1ccc2ncccc2c1` (stereo not drawn) [Compound 622, N-(4-amino-3,4-dioxo-1-phenylbutan-2-yl)-1-(difluoromethyl)-3-(quinolin-6-yl)-1H-pyrazole-4-carboxamide hydrochloride], the IC50 in assay [1], in assay [2] and in assay [3] was below 3 µM each time.
Regarding `NC(=O)C(=O)[C@H](Cc1ccccc1)NC(=O)c1csnc1-c1ccccc1` [Compound 11, (S)—N-(4-amino-3,4-dioxo-1-phenylbutan-2-yl)-3-phenylisothiazole-4-carboxamide], the IC50 in assay [1] (Column A), in assay [2] (Column C) and in assay [3] (Column B) was below 3 µM in each case.
Consider `CC[C@H](NC(=O)c1c(C)noc1-c1ccccc1)C(=O)C(N)=O` [Compound 47], for which the IC50 in assay [1] (Column A), in assay [2] (Column C) and in assay [3] (Column B) was below 3 µM in each case.
Regarding `Cc1cc(C(F)(F)F)cc(-n2nc(C)cc2C(=O)N[C@@H](Cc2ccccc2)C(=O)C(N)=O)n1` [Compound 234, (S)—N-(4-amino-3,4-dioxo-1-phenylbutan-2-yl)-3-methyl-1-(6-methyl-4-(trifluoromethyl)pyridin-2-yl)-1H-pyrazole-5-carboxamide], the IC50 in assay [1] (Column A), in assay [2] (Column C) and in assay [3] (Column B) was below 3 µM each time.
